Several values for one entry are separate records, joined by “and”; a condition that tells them apart may be missing. Identical values can stand only once.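 Five concentrations, 48 hours, 96-well plates. GI50: concentration for 50% inhibition of growth. Definition used: TGI = concentration required for complete inhibition of growth.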 Numbered stars: 1 amine (or outer) side, 2 acyl side, 3 side chain; on linkers, the order of the positions; unused ones are H or OH. Bridge positions count the residues as written; N and C are the ends. Square brackets hold non-standard residues; d marks the D form. Peptide text beside a SMILES is read from it. I, II: the chains in the order shown. Actinocin(1to9) = Cc1c2oc3c(C)ccc(C(=O)[*:2])c3nc-2c(C(=O)[*:1])c(N)c1=O; NMeY = CN[CH](Cc1ccc(O)cc1)C(=O)O; Sar = CNCC(=O)O
Tests used:
Assay in all cases: NCI-60 cell line screen, 48 h
DU-145 prostate = test system: DU-145 prostate
ACHN renal = test system: ACHN renal
HS 578T breast = test system: HS 578T breast
NCI/ADR-RES ovarian = test system: NCI/ADR-RES ovarian
NCI-H226 lung = test system: NCI-H226 lung
UACC-257 melanoma = test system: UACC-257 melanoma
A498 renal = test system: A498 renal
HCT-116 colon = test system: HCT-116 colon
MOLT-4 leukemia = test system: MOLT-4 leukemia
786-0 renal = test system: 786-0 renal

Row | Compound | TGI (DU-145 prostate) | TGI (ACHN renal) | TGI (HS 578T breast) | TGI (NCI/ADR-RES ovarian) | TGI (NCI-H226 lung) | TGI (UACC-257 melanoma) | TGI (A498 renal) | TGI (HCT-116 colon) | TGI (MOLT-4 leukemia) | TGI (786-0 renal) | GI50 (ACHN renal) | GI50 (NCI-H226 lung) | GI50 (UACC-257 melanoma) | GI50 (A498 renal) | GI50 (HCT-116 colon) | GI50 (MOLT-4 leukemia) | GI50 (786-0 renal) | GI50 (DU-145 prostate) | GI50 (HS 578T breast) | GI50 (NCI/ADR-RES ovarian)
1 | COC(C)C(O)(C(=O)OCC1=CCN2CCC(O)C12)C(C)(C)O (stereo not drawn) | > 100 µM | > 100 µM | > 100 µM | > 100 µM | > 100 µM | > 100 µM | > 100 µM | > 100 µM | > 100 µM | > 100 µM | – | – | – | – | – | – | – | – | – | –
2 | C[CH2][Sn]([CH2]C)([O]C(=O)c1ccc(F)cc1)[O]C(=O)c1ccc(F)cc1 | – | 32.4 µM | – | – | 29.4 µM | 41 µM | 36.3 µM | > 55.8 µM | > 85.1 µM | 35.1 µM | 17.8 µM | 15.5 µM | 19.7 µM | 16.8 µM | 33 µM | 26.7 µM | 18.8 µM | – | – | –
3 | CC(C)(C)OC(=O)N[C@@H](Cc1ccccc1)C(=O)N(Cc1ccccc1)C1(C(=O)NCc2ccccc2)CCN(Cc2ccccc2)CC1 | > 100 µM | – | > 100 µM | 46.9 µM | > 100 µM | > 100 µM | 6.36 µM | 10.1 µM | 6.33 µM | 43.3 µM | – | 3.2 µM | 2.54 µM | 1.43 µM | 2.42 µM | 1.83 µM | 2.99 µM | 5.38 µM | 4.22 µM | 2.85 µM
4 | O=C(O)c1ccc(SSc2ccc(C(=O)O)cn2)nc1 | > 100 µM | > 100 µM | > 100 µM | > 100 µM | > 100 µM | > 100 µM | > 100 µM | > 100 µM | > 100 µM | > 100 µM | – | – | – | – | – | – | – | – | – | –
5 | CCC[CH2][Sn]1([CH2]CCC)[S]CC[N]1S(=O)(=O)c1ccc(C)cc1 | – | 3.11 µM | – | – | 3.45 µM | 2.5 µM | – | 2.81 µM | 4.04 µM | 2.53 µM | 1.67 µM | 2.03 µM | 1.23 µM | – | 1.42 µM | 1.14 µM | 1.26 µM | – | – | –
6 | O/N=C/c1ccc(O)c(O)c1 | – | > 100 µM | – | – | > 100 µM | > 100 µM | > 100 µM | > 100 µM | > 100 µM | > 100 µM | – | – | – | – | – | – | – | – | – | –
7 | COC(=O)CC[C@]12C[C@]13CC[C@]1(C)C4C(C)C[C@]5(CC(C)C(=O)O5)OC4CC1(C)C3CCC2C(C)(C)O (stereo partly drawn) | – | > 100 µM | – | – | – | > 100 µM | > 100 µM | > 100 µM | – | > 100 µM | – | – | – | – | – | – | – | – | – | –
8 | O=C1NC(c2ccccc2)C2(C(=O)O)CN(C3CC3)c3cc(N4CCNCC4)c(F)cc3C2N1 (stereo not drawn) | > 100 µM | > 100 µM | > 100 µM | > 100 µM | > 100 µM | > 100 µM | – | > 100 µM | > 100 µM | > 100 µM | > 100 µM | > 100 µM | > 100 µM | – | > 100 µM | > 100 µM | > 100 µM | > 100 µM | > 100 µM | > 100 µM
9 | COc1cc2cnc3c4cc(OCc5ccccc5)ccc4ccc3c2cc1OC | – | > 100 µM | – | – | 72.6 µM | > 100 µM | – | > 100 µM | 30.9 µM | 44.5 µM | – | – | – | – | – | – | – | – | – | –
10 | C1=CCCC=CCC1.C[PH+](C)C.C[PH+](C)C.C[PH+](C)C.[Cl-].[Ir] | – | > 100 µM | – | – | – | 59.1 µM | – | > 100 µM | > 100 µM | > 100 µM | > 100 µM | – | 23.2 µM | – | 42.9 µM | 30.2 µM | > 100 µM | – | – | –
11 | C=C1C(OC(C)=O)CC(OC(C)=O)C2(C)C(OC(C)=O)C(OC(C)=O)C3=C(C)C(OC(=O)/C=C/c4ccccc4)CC(C(OC(C)=O)C12)C3(C)C (stereo not drawn) | – | > 100 µM | – | – | > 100 µM | > 100 µM | > 100 µM | > 100 µM | > 100 µM | > 100 µM | – | – | – | – | – | – | – | – | – | –
12 | O=c1c2cc3ccccc3n2c(=O)c2cc3ccccc3n12 | – | > 100 µM | – | – | > 100 µM | > 100 µM | > 100 µM | > 100 µM | > 100 µM | > 100 µM | – | – | – | – | – | – | – | – | – | –
13 | COC(=O)N/N=C(\C)CC(=O)Nc1ccc(Cl)cc1 | – | – | – | – | > 100 µM | > 100 µM | > 100 µM | > 100 µM | > 100 µM | > 100 µM | – | – | – | – | – | – | – | – | – | –
14 | CC1c2[nH]c3ccccc3c2CCN1O (stereo not drawn) | – | > 100 µM | – | – | > 100 µM | > 100 µM | > 100 µM | > 100 µM | > 100 µM | > 100 µM | – | – | – | – | – | – | – | – | – | –
15 | NC(=O)c1ccc(Cl)c([N+](=O)[O-])c1 | – | > 100 µM | – | – | > 100 µM | > 100 µM | > 100 µM | > 100 µM | > 100 µM | > 100 µM | – | – | – | – | – | – | – | – | – | –
16 | COc1ccc(CC2C(=O)OC(C)C(NC(=O)c3c4nc5c(C(=O)NC6C(=O)NC(C(C)C)C(=O)N7CCCC7C(=O)N(C)CC(=O)N(C)C(Cc7ccc(OC)cc7)C(=O)OC6C)ccc(C)c5oc-4c(C)c(=O)c3N)C(=O)NC(C(C)C)C(=O)N3CCCC3C(=O)N(C)CC(=O)N2C)cc1 (stereo not drawn) (I: TVP[Sar][NMeY](Me) / II: TVP[Sar][NMeY](Me); ester I:1-I:C, II:1-II:C; linker I:N-II:N via Actinocin(1to9); configuration not given here) | – | > 0.591 µM | < 0.01 µM and 0.0411 µM | 11.5 µM and > 1 µM | > 0.213 µM | – | – | 1.12 µM and > 1 µM | – | > 1 µM | – | – | – | – | < 0.01 µM and 0.00298 µM | 0.00152 µM | < 0.0333 µM and 0.00694 µM | – | < 0.01 µM and 0.00387 µM | 0.0901 µM and > 0.863 µM
17 | CO[C@@]1(c2ccccc2)O[C@H]2OCCC2[C@H]1c1ccc(Cl)cc1 (stereo partly drawn) | – | > 100 µM | – | – | > 100 µM | 44.6 µM | 53.3 µM | > 100 µM | 92.7 µM | > 100 µM | – | – | – | – | – | – | – | – | – | –
18 | C=C1C[C@@H]2C[C@@H](C)CC(O)[C@]2(CCCN)C1O (stereo partly drawn) | – | > 100 µM | – | – | > 100 µM | > 100 µM | > 100 µM | > 100 µM | > 100 µM | > 100 µM | – | – | – | – | – | – | – | – | – | –
19 | COc1ccc(OC(C)C(=O)O)c2c(=O)ccccc12 (stereo not drawn) | – | > 100 µM | – | – | > 100 µM | > 100 µM | > 100 µM | – | > 100 µM | > 100 µM | – | – | – | – | – | – | – | – | – | –
20 | O=C1NC2C(O)CCCCC2C12CCCCC2 (stereo not drawn) | – | > 100 µM | – | – | – | > 100 µM | > 100 µM | > 100 µM | > 100 µM | > 100 µM | – | – | – | – | – | – | – | – | – | –
21 | CC(=O)NN1C(=O)C(Cc2ccccc2)c2ccccc21 (stereo not drawn) | – | > 100 µM | – | – | > 100 µM | > 100 µM | > 100 µM | > 100 µM | > 100 µM | > 100 µM | – | – | – | – | – | – | – | – | – | –

Reference: PubChem BioAssay (NCI)
